BigSolDB 2.1

Details: in chloroform

Brc1sc(Br)c(Br)c1Br
Details	solubility (mole fraction)
278.15 K	0.0198
282.15 K	0.0231
286.15 K	0.0265
290.15 K	0.0304
294.15 K	0.0349
298.15 K	0.0401
302.15 K	0.0458
306.15 K	0.0517
310.15 K	0.0588
314.15 K	0.066
318.15 K	0.0745
322.15 K	0.0828
